Results: the NIST ThermoML archive (doi:10.1016/j.tca.2013.02.009)
Numbers after ± are expanded uncertainties.

Assay: molar heat capacity at constant pressure
Conditions: 101.33 kPa, Crystal, Large sample (1 g) DSC

## [O-2].[O-2].[O-2].[Y+3].[Y+3] [yttrium oxide (Y2O3)]
603 K
  molar heat capacity at constant pressure: 122.98 ± 5.2 J/K/mol
613 K
  molar heat capacity at constant pressure: 123.25 ± 5.2 J/K/mol
623 K
  molar heat capacity at constant pressure: 123.52 ± 5.2 J/K/mol
633 K
  molar heat capacity at constant pressure: 123.77 ± 5.2 J/K/mol
643 K
  molar heat capacity at constant pressure: 124 ± 5.3 J/K/mol
653 K
  molar heat capacity at constant pressure: 124.22 ± 5.3 J/K/mol
663 K
  molar heat capacity at constant pressure: 124.43 ± 5.3 J/K/mol
673 K
  molar heat capacity at constant pressure: 124.63 ± 5.3 J/K/mol
683 K
  molar heat capacity at constant pressure: 124.82 ± 5.3 J/K/mol
693 K
  molar heat capacity at constant pressure: 125 ± 5.3 J/K/mol
703 K
  molar heat capacity at constant pressure: 125.16 ± 5.3 J/K/mol
713 K
  molar heat capacity at constant pressure: 125.32 ± 5.3 J/K/mol
723 K
  molar heat capacity at constant pressure: 125.47 ± 5.3 J/K/mol
733 K
  molar heat capacity at constant pressure: 125.62 ± 5.3 J/K/mol
743 K
  molar heat capacity at constant pressure: 125.75 ± 5.3 J/K/mol
753 K
  molar heat capacity at constant pressure: 125.88 ± 5.3 J/K/mol
763 K
  molar heat capacity at constant pressure: 126 ± 5.3 J/K/mol
773 K
  molar heat capacity at constant pressure: 126.12 ± 5.3 J/K/mol
783 K
  molar heat capacity at constant pressure: 126.22 ± 5.4 J/K/mol
793 K
  molar heat capacity at constant pressure: 126.33 ± 5.4 J/K/mol
803 K
  molar heat capacity at constant pressure: 126.42 ± 5.4 J/K/mol
813 K
  molar heat capacity at constant pressure: 126.52 ± 5.4 J/K/mol
823 K
  molar heat capacity at constant pressure: 126.6 ± 5.4 J/K/mol
833 K
  molar heat capacity at constant pressure: 126.68 ± 5.4 J/K/mol
843 K
  molar heat capacity at constant pressure: 126.76 ± 5.4 J/K/mol
853 K
  molar heat capacity at constant pressure: 126.83 ± 5.4 J/K/mol
863 K
  molar heat capacity at constant pressure: 126.9 ± 5.4 J/K/mol
873 K
  molar heat capacity at constant pressure: 126.97 ± 5.4 J/K/mol
883 K
  molar heat capacity at constant pressure: 127.03 ± 5.4 J/K/mol
893 K
  molar heat capacity at constant pressure: 127.09 ± 5.4 J/K/mol
903 K
  molar heat capacity at constant pressure: 127.14 ± 5.4 J/K/mol
913 K
  molar heat capacity at constant pressure: 127.19 ± 5.4 J/K/mol
923 K
  molar heat capacity at constant pressure: 127.24 ± 5.4 J/K/mol
933 K
  molar heat capacity at constant pressure: 127.28 ± 5.4 J/K/mol
943 K
  molar heat capacity at constant pressure: 127.32 ± 5.4 J/K/mol
953 K
  molar heat capacity at constant pressure: 127.36 ± 5.4 J/K/mol
963 K
  molar heat capacity at constant pressure: 127.4 ± 5.4 J/K/mol
973 K
  molar heat capacity at constant pressure: 127.43 ± 5.4 J/K/mol
983 K
  molar heat capacity at constant pressure: 127.46 ± 5.4 J/K/mol
993 K
  molar heat capacity at constant pressure: 127.49 ± 5.4 J/K/mol
1003 K
  molar heat capacity at constant pressure: 127.52 ± 5.4 J/K/mol
1013 K
  molar heat capacity at constant pressure: 127.54 ± 5.4 J/K/mol
1023 K
  molar heat capacity at constant pressure: 127.57 ± 5.4 J/K/mol
1033 K
  molar heat capacity at constant pressure: 127.59 ± 5.4 J/K/mol
1043 K
  molar heat capacity at constant pressure: 127.61 ± 5.4 J/K/mol
1053 K
  molar heat capacity at constant pressure: 127.62 ± 5.4 J/K/mol
1063 K
  molar heat capacity at constant pressure: 127.64 ± 5.4 J/K/mol
1073 K
  molar heat capacity at constant pressure: 127.65 ± 5.4 J/K/mol
1083 K
  molar heat capacity at constant pressure: 127.66 ± 5.4 J/K/mol
1093 K
  molar heat capacity at constant pressure: 127.67 ± 5.4 J/K/mol
1103 K
  molar heat capacity at constant pressure: 127.68 ± 5.4 J/K/mol
1113 K
  molar heat capacity at constant pressure: 127.68 ± 5.4 J/K/mol
1123 K
  molar heat capacity at constant pressure: 127.68 ± 5.4 J/K/mol
1133 K
  molar heat capacity at constant pressure: 127.69 ± 5.4 J/K/mol
1143 K
  molar heat capacity at constant pressure: 127.69 ± 5.4 J/K/mol
1153 K
  molar heat capacity at constant pressure: 127.69 ± 5.4 J/K/mol
1163 K
  molar heat capacity at constant pressure: 127.7 ± 5.4 J/K/mol
1173 K
  molar heat capacity at constant pressure: 127.7 ± 5.4 J/K/mol
1183 K
  molar heat capacity at constant pressure: 127.7 ± 5.4 J/K/mol
1193 K
  molar heat capacity at constant pressure: 127.7 ± 5.4 J/K/mol
1203 K
  molar heat capacity at constant pressure: 127.69 ± 5.4 J/K/mol
